Measured values taken from ChEMBL document CHEMBL1212922, “Crystal structure-based selective targeting of the pyridoxal 5'-phosphate dependent enzyme kynurenine aminotransferase II for cognitive enhancement” (J Med Chem, 2010).

Tests used:
[1] = molecular target: T1, Kynurenine/alpha-aminoadipate aminotransferase, mitochondrial (Homo sapiens, UniProt Q8N5Z0); test: Inhibition of human recombinant MBP-KAT2 expressed in HEK293 cells assessed as conversion of L-kynurenine to kynurenic acid after 1 hr
[2] = molecular target: T2, Kynurenine--oxoglutarate transaminase 1 (Homo sapiens, UniProt Q16773); test: Inhibition of human recombinant MBP-KAT1 expressed in Escherichia coli BL21 assessed as conversion of L-kynurenine to kynurenic acid after 1 hr
T2 sequence (Q16773 whole entry): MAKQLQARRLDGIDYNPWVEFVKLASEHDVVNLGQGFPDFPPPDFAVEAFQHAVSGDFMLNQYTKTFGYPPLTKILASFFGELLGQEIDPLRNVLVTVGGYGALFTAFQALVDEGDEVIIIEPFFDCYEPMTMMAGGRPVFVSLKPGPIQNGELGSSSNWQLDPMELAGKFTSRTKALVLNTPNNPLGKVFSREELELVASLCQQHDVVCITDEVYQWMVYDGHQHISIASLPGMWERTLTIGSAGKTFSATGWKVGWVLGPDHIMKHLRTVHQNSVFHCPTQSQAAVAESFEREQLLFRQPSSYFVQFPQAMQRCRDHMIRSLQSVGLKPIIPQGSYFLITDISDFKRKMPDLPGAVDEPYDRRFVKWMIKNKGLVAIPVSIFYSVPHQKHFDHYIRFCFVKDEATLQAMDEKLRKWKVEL

[3] = molecular target: T1, Kynurenine/alpha-aminoadipate aminotransferase, mitochondrial; test: Inhibition of KAT2 in human prefrontal cortex homogenates; assay type: tissue-based
[4] = molecular target: Kynurenine/alpha-aminoadipate aminotransferase, mitochondrial (Rattus norvegicus, UniProt Q64602); test: Inhibition of rat brain KAT2
[5] = molecular target: Kynurenine 3-monooxygenase (Homo sapiens) (UniProt O15229); test: Inhibition of kynurenine 3-monooxygenase in human prefrontal cortex homogenates at 100 uM; assay type: tissue-based
[6] = molecular target: T2, Kynurenine--oxoglutarate transaminase 1; test: Inhibition of KAT1 in human prefrontal cortex homogenates; assay type: tissue-based
[7] = molecular target: T3, Kynureninase (Homo sapiens) (UniProt Q16719); test: Inhibition of kynureninase in human prefrontal cortex homogenates at 100 uM; assay type: tissue-based
T3 sequence (whole entry): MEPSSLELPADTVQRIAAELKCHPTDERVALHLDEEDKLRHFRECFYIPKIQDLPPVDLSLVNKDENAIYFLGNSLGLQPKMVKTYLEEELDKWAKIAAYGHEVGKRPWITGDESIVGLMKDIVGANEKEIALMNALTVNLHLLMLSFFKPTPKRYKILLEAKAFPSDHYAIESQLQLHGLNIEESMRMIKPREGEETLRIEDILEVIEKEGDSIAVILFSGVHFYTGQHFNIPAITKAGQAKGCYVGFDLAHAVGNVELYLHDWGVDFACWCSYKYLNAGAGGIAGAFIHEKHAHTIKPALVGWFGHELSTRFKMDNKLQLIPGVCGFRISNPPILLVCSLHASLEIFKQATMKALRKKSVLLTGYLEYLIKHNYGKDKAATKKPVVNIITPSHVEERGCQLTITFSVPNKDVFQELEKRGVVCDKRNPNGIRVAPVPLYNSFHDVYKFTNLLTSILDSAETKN

T1 sequence (Q8N5Z0 whole entry): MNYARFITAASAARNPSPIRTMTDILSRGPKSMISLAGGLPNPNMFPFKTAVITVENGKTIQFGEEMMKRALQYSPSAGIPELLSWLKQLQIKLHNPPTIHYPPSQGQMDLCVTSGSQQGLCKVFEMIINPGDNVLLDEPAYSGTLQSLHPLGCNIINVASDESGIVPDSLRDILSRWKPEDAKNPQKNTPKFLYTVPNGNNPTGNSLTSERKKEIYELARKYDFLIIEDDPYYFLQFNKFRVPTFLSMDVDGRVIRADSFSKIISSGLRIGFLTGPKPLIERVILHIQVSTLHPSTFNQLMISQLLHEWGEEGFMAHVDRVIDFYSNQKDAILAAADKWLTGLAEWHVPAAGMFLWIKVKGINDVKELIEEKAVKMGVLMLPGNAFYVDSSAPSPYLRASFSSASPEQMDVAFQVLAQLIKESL
Kynurenine/alpha-aminoadipate aminotransferase, mitochondrial (Rattus norvegicus, UniProt Q64602), sequence (Q64602 whole entry): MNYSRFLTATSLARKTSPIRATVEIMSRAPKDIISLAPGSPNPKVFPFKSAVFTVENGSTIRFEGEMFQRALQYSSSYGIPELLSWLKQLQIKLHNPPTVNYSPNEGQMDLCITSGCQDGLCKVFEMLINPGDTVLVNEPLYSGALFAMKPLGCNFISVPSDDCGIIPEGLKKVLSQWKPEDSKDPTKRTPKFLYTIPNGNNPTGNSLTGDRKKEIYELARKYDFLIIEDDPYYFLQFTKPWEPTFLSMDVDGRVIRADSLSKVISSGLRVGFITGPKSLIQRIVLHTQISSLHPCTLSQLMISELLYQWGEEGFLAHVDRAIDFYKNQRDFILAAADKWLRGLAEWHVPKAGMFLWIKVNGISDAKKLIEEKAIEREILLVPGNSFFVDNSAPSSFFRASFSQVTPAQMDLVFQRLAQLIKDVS
Kynurenine 3-monooxygenase (Homo sapiens), sequence (O15229 whole entry, looked up): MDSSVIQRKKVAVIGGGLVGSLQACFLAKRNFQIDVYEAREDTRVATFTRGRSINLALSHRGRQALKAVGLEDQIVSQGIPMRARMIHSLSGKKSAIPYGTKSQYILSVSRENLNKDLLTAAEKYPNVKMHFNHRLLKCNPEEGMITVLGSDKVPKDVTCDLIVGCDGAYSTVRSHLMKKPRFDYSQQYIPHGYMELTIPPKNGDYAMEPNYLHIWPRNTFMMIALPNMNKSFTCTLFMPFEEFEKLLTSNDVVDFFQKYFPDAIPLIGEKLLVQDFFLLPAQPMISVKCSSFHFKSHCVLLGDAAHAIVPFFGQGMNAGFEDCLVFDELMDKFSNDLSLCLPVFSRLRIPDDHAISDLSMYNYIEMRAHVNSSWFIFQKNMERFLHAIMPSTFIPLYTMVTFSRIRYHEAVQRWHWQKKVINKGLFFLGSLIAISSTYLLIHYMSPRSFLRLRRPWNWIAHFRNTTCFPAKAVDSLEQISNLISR

IC50 [1] | IC50 [2] | IC50 [3] | IC50 [4] | inhibition [5] | IC50 [6] | inhibition [7] | Compound
1500 nM |  |  |  |  |  |  | C[C@@H]1COc2c(N3CCN(N)CC3)c(F)cc3c(=O)c(C(=O)O)cn1c23
910 nM | > 30000 nM | 1000 nM | 1000 nM | 8.3% | > 30000 nM | 5.1% | C[C@H]1COc2c(N3CCN(N)CC3)c(F)cc3c(=O)c(C(=O)O)cn1c23
